Measurements from PubChem BioAssay (NCI).
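Results reflect a 48-hour exposure of cells in 96-well plates to compound at five concentrations. TGI marks complete inhibition of growth.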

Key:
Assay in all cases: NCI tumour cell line growth inhibition, 48 h
OVCAR-3 ovarian = test system: OVCAR-3 ovarian
OVCAR-8 ovarian = test system: OVCAR-8 ovarian
DMS 114 small cell lung = test system: DMS 114 small cell lung
UACC-257 melanoma = test system: UACC-257 melanoma
SK-MEL-2 melanoma = test system: SK-MEL-2 melanoma
SF-539 CNS = test system: SF-539 CNS
CCRF-CEM leukemia = test system: CCRF-CEM leukemia
SNB-75 CNS = test system: SNB-75 CNS
A549 NSCLC = test system: A549 NSCLC
SK-MEL-28 melanoma = test system: SK-MEL-28 melanoma
RPMI-8226 leukemia = test system: RPMI-8226 leukemia
DLD-1 colon = test system: DLD-1 colon
HOP-18 NSCLC = test system: HOP-18 NSCLC
SN12C renal = test system: SN12C renal
SF-268 CNS = test system: SF-268 CNS
SNB-78 CNS = test system: SNB-78 CNS
UACC-62 melanoma = test system: UACC-62 melanoma
CAKI-1 renal = test system: CAKI-1 renal
LOX IMVI melanoma = test system: LOX IMVI melanoma
HCT-15 colon = test system: HCT-15 colon
M19-MEL melanoma = test system: M19-MEL melanoma
COLO 205 colon = test system: COLO 205 colon
KM20L2 colon = test system: KM20L2 colon
TK-10 renal = test system: TK-10 renal
HL-60(TB) leukemia = test system: HL-60(TB) leukemia
EKVX NSCLC = test system: EKVX NSCLC
M14 melanoma = test system: M14 melanoma
NCI-H522 lung = test system: NCI-H522 lung
MALME-3M melanoma = test system: MALME-3M melanoma
LXFL 529 NSCLC = test system: LXFL 529 NSCLC
ACHN renal = test system: ACHN renal
786-0 renal = test system: 786-0 renal
U251 CNS = test system: U251 CNS
HOP-92 NSCLC = test system: HOP-92 NSCLC
IGROV1 ovarian = test system: IGROV1 ovarian
A498 renal = test system: A498 renal
OVCAR-5 ovarian = test system: OVCAR-5 ovarian
MOLT-4 leukemia = test system: MOLT-4 leukemia
SK-OV-3 ovarian = test system: SK-OV-3 ovarian
OVCAR-4 ovarian = test system: OVCAR-4 ovarian
NCI-H226 lung = test system: NCI-H226 lung
DMS 273 small cell lung = test system: DMS 273 small cell lung
NCI-H23 lung = test system: NCI-H23 lung
UO-31 renal = test system: UO-31 renal
SNB-19 CNS = test system: SNB-19 CNS
K-562 leukemia = test system: K-562 leukemia
HT29 colon = test system: HT29 colon
KM12 colon = test system: KM12 colon
SF-295 CNS = test system: SF-295 CNS
XF 498 CNS = test system: XF 498 CNS
SW-620 colon = test system: SW-620 colon
HOP-62 NSCLC = test system: HOP-62 NSCLC
SK-MEL-5 melanoma = test system: SK-MEL-5 melanoma
HCC-2998 colon = test system: HCC-2998 colon
NCI-H460 lung = test system: NCI-H460 lung
RXF 393 renal = test system: RXF 393 renal
RXF-631 renal = test system: RXF-631 renal
HCT-116 colon = test system: HCT-116 colon

Question: What does the source list for `O=C1NC(c2ccccc2)(c2ccccc2)C(=O)N1CCCCCCN1C(=O)NC(c2ccccc2)(c2ccccc2)C1=O`?
Answer: TGI (OVCAR-3 ovarian): > 100 µM; TGI (OVCAR-8 ovarian): > 100 µM; TGI (DMS 114 small cell lung): > 100 µM; TGI (UACC-257 melanoma): > 100 µM; TGI (SK-MEL-2 melanoma): 66.2 µM; TGI (SF-539 CNS): 81.3 µM; TGI (CCRF-CEM leukemia): > 100 µM; TGI (SNB-75 CNS): 19.6 µM; TGI (A549 NSCLC): > 100 µM; TGI (SK-MEL-28 melanoma): 89.2 µM; TGI (RPMI-8226 leukemia): > 100 µM; TGI (DLD-1 colon): > 100 µM; TGI (HOP-18 NSCLC): > 100 µM; TGI (SN12C renal): > 100 µM; TGI (SF-268 CNS): > 100 µM; TGI (SNB-78 CNS): > 100 µM; TGI (UACC-62 melanoma): > 100 µM; TGI (CAKI-1 renal): > 100 µM; TGI (LOX IMVI melanoma): > 100 µM; TGI (HCT-15 colon): > 100 µM; TGI (M19-MEL melanoma): > 100 µM; TGI (COLO 205 colon): > 100 µM; TGI (KM20L2 colon): > 100 µM; TGI (TK-10 renal): 77 µM; TGI (HL-60(TB) leukemia): > 100 µM; TGI (EKVX NSCLC): > 100 µM; TGI (M14 melanoma): > 100 µM; TGI (NCI-H522 lung): 84.2 µM; TGI (MALME-3M melanoma): 85.2 µM; TGI (LXFL 529 NSCLC): > 100 µM; TGI (ACHN renal): > 100 µM; TGI (786-0 renal): 49.3 µM; TGI (U251 CNS): > 100 µM; TGI (HOP-92 NSCLC): 19.9 µM; TGI (IGROV1 ovarian): > 100 µM; TGI (A498 renal): > 100 µM; TGI (OVCAR-5 ovarian): > 100 µM; TGI (MOLT-4 leukemia): > 100 µM; TGI (SK-OV-3 ovarian): 77.2 µM; TGI (OVCAR-4 ovarian): 27.6 µM; TGI (NCI-H226 lung): > 100 µM; TGI (DMS 273 small cell lung): > 100 µM; TGI (NCI-H23 lung): 91.5 µM; TGI (UO-31 renal): > 100 µM; TGI (SNB-19 CNS): 72.1 µM; TGI (K-562 leukemia): > 100 µM; TGI (HT29 colon): > 100 µM; TGI (KM12 colon): > 100 µM; TGI (SF-295 CNS): 81.3 µM; TGI (XF 498 CNS): 30.9 µM; TGI (SW-620 colon): > 100 µM; TGI (HOP-62 NSCLC): > 100 µM; TGI (SK-MEL-5 melanoma): 57.9 µM; TGI (HCC-2998 colon): > 100 µM; TGI (NCI-H460 lung): > 100 µM

Question: How did the TGI (OVCAR-3 ovarian) turn out when `CC(C)(C)c1cc(C2c3cc4c(cc3OC(O)(CO)C2C(=O)O)OCO4)cc(C(C)(C)C)c1O` (configuration not stated) (tested in a mixture with another compound) was run?
Answer: 18.9 µM

Question: What about the TGI (OVCAR-8 ovarian) of the same compound?
Answer: 33.9 µM

Question: And the TGI (DMS 114 small cell lung)?
Answer: 23.8 µM

Question: And the TGI (UACC-257 melanoma)?
Answer: 26.4 µM

Question: And the TGI (SF-539 CNS)?
Answer: 25.8 µM

Question: And the TGI (CCRF-CEM leukemia)?
Answer: 21.9 µM

Question: And the TGI (SNB-75 CNS)?
Answer: 22.8 µM

Question: What about the TGI (A549 NSCLC) of the same compound?
Answer: 48.1 µM

Question: And the TGI (SK-MEL-28 melanoma)?
Answer: 28.7 µM

Question: What about the TGI (RPMI-8226 leukemia) of the same compound?
Answer: 22.7 µM

Question: And the TGI (DLD-1 colon)?
Answer: 33.2 µM

Question: What about the TGI (HOP-18 NSCLC) of the same compound?
Answer: 20.3 µM

Question: What about the TGI (SN12C renal) of the same compound?
Answer: 31 µM

Question: And the TGI (UACC-62 melanoma)?
Answer: 18.8 µM

Question: What about the TGI (RXF 393 renal) of the same compound?
Answer: 29.4 µM

Question: And the TGI (CAKI-1 renal)?
Answer: 50.3 µM

Question: And the TGI (LOX IMVI melanoma)?
Answer: 29.1 µM

Question: And the TGI (HCT-15 colon)?
Answer: 26 µM

Question: What about the TGI (M19-MEL melanoma) of the same compound?
Answer: 28.6 µM

Question: What about the TGI (COLO 205 colon) of the same compound?
Answer: 37.8 µM

Question: What about the TGI (KM20L2 colon) of the same compound?
Answer: 33.4 µM

Question: And the TGI (TK-10 renal)?
Answer: 45.4 µM

Question: What about the TGI (HL-60(TB) leukemia) of the same compound?
Answer: 38.2 µM

Question: What about the TGI (EKVX NSCLC) of the same compound?
Answer: 50.5 µM

Question: And the TGI (M14 melanoma)?
Answer: 30.7 µM

Question: And the TGI (RXF-631 renal)?
Answer: 43.3 µM

Question: What about the TGI (MALME-3M melanoma) of the same compound?
Answer: 37.3 µM

Question: And the TGI (ACHN renal)?
Answer: 28.2 µM

Question: What about the TGI (786-0 renal) of the same compound?
Answer: 33.8 µM

Question: What about the TGI (U251 CNS) of the same compound?
Answer: 29.1 µM

Question: What about the TGI (HOP-92 NSCLC) of the same compound?
Answer: 43.7 µM

Question: And the TGI (IGROV1 ovarian)?
Answer: 48.6 µM

Question: What about the TGI (MOLT-4 leukemia) of the same compound?
Answer: 20.3 µM

Question: And the TGI (SK-OV-3 ovarian)?
Answer: 45.8 µM

Question: And the TGI (OVCAR-4 ovarian)?
Answer: 25.6 µM

Question: And the TGI (DMS 273 small cell lung)?
Answer: 41 µM

Question: What about the TGI (NCI-H23 lung) of the same compound?
Answer: 29.6 µM

Question: And the TGI (UO-31 renal)?
Answer: 26.6 µM

Question: And the TGI (SNB-19 CNS)?
Answer: 25.7 µM

Question: What about the TGI (K-562 leukemia) of the same compound?
Answer: 29.6 µM

Question: What about the TGI (HT29 colon) of the same compound?
Answer: 27.2 µM

Question: What about the TGI (SF-295 CNS) of the same compound?
Answer: 30.3 µM

Question: And the TGI (SW-620 colon)?
Answer: 33.4 µM

Question: What about the TGI (HCT-116 colon) of the same compound?
Answer: 21.2 µM

Question: And the TGI (HOP-62 NSCLC)?
Answer: 53.1 µM

Question: What about the TGI (SK-MEL-5 melanoma) of the same compound?
Answer: 23.9 µM

Question: And the TGI (NCI-H460 lung)?
Answer: 33.3 µM
